How the values were obtained:
DDR2 = target: T1, DDR2 (Homo sapiens, UniProt Q16832); assay: LanthaScreen Europium Kinase Binding assay, DDR2; conditions: 5 nM DDR2, 10 nM Kinase Tracer 178, 1 h at rt; Ki from IC50 by Cheng-Prusoff; read-out: Ki DDR2
T1 construct: purchased Life Technologies
T1 sequence (Q16832 22-855): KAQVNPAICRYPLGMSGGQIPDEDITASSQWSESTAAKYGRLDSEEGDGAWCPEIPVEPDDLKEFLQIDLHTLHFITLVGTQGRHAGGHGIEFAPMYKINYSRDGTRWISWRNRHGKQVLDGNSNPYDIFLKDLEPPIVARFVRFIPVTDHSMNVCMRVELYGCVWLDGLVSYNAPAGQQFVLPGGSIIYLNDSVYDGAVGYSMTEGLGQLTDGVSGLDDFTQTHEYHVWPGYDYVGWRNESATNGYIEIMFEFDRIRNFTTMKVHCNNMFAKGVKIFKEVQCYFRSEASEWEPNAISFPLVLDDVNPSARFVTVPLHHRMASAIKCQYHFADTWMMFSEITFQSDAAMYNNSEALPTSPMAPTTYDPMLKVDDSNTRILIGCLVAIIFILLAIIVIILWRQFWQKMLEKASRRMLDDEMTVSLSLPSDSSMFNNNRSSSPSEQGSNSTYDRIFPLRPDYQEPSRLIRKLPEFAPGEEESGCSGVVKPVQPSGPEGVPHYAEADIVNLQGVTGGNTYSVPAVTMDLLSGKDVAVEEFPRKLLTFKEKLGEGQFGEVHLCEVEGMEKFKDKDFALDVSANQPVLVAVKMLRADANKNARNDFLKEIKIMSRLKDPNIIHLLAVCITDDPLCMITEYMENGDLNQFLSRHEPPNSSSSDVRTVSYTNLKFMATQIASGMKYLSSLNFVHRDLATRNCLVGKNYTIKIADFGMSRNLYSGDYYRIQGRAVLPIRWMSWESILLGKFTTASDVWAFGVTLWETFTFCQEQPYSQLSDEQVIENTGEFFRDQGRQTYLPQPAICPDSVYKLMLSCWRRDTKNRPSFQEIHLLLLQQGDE
Protocol: (§1) DDR1 and DDR2 binding assays were performed using Life Technologies LanthaScreen™ Europium Kinase Binding assay. […] IC50 values were determined in GraphPad Prism 7.0 software, using 4 parameter model: log (inhibitor) vs. response. IC50 values were converted in Ki using the Cheng-Prusoff equation (Ki-IC50/(1+ [Tracer]/Kd).

DDR1 = target: T2, DDR1 (Homo sapiens, UniProt Q08345); assay: LanthaScreen Europium Kinase Binding assay, DDR1; conditions: 5 nM DDR1, 20 nM Kinase Tracer 178, 1 h at rt; Ki from IC50 by Cheng-Prusoff; read-out: Ki DDR1
T2 construct: purchased Carna Biosciences
Protocol: as §1

T2 sequence (Q08345 19-913): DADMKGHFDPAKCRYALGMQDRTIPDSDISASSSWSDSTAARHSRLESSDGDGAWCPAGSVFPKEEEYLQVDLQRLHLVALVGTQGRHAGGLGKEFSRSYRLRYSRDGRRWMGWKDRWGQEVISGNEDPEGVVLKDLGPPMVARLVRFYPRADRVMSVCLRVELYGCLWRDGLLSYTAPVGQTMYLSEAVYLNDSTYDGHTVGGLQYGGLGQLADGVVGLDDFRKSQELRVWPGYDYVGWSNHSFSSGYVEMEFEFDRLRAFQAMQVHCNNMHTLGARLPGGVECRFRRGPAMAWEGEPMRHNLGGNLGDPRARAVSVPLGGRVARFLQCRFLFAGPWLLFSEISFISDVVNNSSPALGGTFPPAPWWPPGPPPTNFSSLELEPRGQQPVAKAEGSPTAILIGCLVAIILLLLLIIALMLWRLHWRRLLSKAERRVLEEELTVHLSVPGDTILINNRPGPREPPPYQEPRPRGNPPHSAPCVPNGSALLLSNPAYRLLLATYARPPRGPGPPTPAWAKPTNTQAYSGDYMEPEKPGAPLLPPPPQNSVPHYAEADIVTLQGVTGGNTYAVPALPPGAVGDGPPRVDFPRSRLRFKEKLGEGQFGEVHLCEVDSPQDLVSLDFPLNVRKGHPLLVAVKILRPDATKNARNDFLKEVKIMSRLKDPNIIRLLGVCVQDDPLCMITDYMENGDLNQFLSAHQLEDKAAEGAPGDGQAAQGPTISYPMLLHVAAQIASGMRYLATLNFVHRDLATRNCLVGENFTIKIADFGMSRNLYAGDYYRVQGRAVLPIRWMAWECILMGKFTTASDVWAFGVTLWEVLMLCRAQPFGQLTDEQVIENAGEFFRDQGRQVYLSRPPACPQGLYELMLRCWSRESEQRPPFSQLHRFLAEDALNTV

Row | Ki (DDR2) | Ki (DDR1) | SMILES
1 | < 5 nM | < 5 nM | CN(C(=O)Nc1cccc(S(F)(F)(F)(F)F)c1)C1CC2(C1)CN(C(=O)c1cnn3ccn(C)c13)C2 [Example 98, 1-methyl-1-(2-(1-methyl-1H-imidazo[1,2-b]pyrazole-7-carbonyl)-2-azaspiro[3.3]heptan-6-yl)-3-(3-(pentafluoro-16-sulfaneyl)phenyl)urea]
2 | < 5 nM | < 5 nM | Cc1cc2ncnc(C(=O)N3CC4(CC(NC(=O)Nc5cccc(C(F)(F)F)c5)C4)C3)c2s1 [Example 99, 1-(2-(6-methylthieno[3,2-d]pyrimidine-4-carbonyl)-2-azaspiro[3.3]heptan-6-yl)-3-(3-(trifluoromethyl)phenyl)urea]
3 | 5 to 25 nM | < 5 nM | Cn1nc(NC(=O)NC2CC3(C2)CN(C(=O)c2ncnc4ccsc24)C3)cc1C(C)(C)C [Example 100, 1-(5-(tert-butyl)-1-methyl-1H-pyrazol-3-yl)-3-(2-(thieno[3,2-d]pyrimidine-4-carbonyl)-2-azaspiro[3.3]heptan-6-yl)urea]
4 | < 5 nM | < 5 nM | O=C(Nc1cc(OC(F)(F)F)ccn1)NC1CC2(C1)CN(C(=O)c1ncnc3ccsc13)C2 [Example 101, 1-(2-(thieno[3,2-d]pyrimidine-4-carbonyl)-2-azaspiro[3.3]heptan-6-yl)-3-(4-(trifluoromethoxy)pyridin-2-yl)urea]
5 | 5 to 25 nM | < 5 nM | O=C(Nc1cccc(C(F)(F)F)c1)NC1CC2(C1)CN(C(=O)c1cnn3ccn(CCO)c13)C2 [Example 102, 1-(2-(1-(2-hydroxyethyl)-1H-imidazo[1,2-b]pyrazole-7-carbonyl)-2-azaspiro[3.3]heptan-6-yl)-3-(3-(trifluoromethyl)phenyl)urea]
6 | 5 to 25 nM | < 5 nM | Cn1ccn2ncc(C(=O)N3CC4(CC(NC(=O)Nc5cc(C(F)(F)F)ncn5)C4)C3)c12 [Example 103, 1-(2-(1-methyl-1H-imidazo[1,2-b]pyrazole-7-carbonyl)-2-azaspiro[3.3]heptan-6-yl)-3-(6-(trifluoromethyl)pyrimidin-4-yl)urea]
7 | 5 to 25 nM | < 5 nM | Cc1ccc(OC(F)(F)F)cc1NC(=O)N(C)C1CC2(C1)CN(C(=O)c1cnn3ccn(C)c13)C2 [Example 104, 1-methyl-1-(2-(1-methyl-1H-imidazo[1,2-b]pyrazole-7-carbonyl)-2-azaspiro[3.3]heptan-6-yl)-3-(2-methyl-5-(trifluoromethoxy)phenyl)urea]
8 | 5 to 25 nM | < 5 nM | CN(C(=O)Nc1cc(OC(F)(F)F)ccn1)C1CC2(C1)CN(C(=O)c1cnn3ccn(C)c13)C2 [Example 105, 1-methyl-1-(2-(1-methyl-1H-imidazo[1,2-b]pyrazole-7-carbonyl)-2-azaspiro[3.3]heptan-6-yl)-3-(4-(trifluoromethoxy)pyridin-2-yl)urea]

The next lines start with the compound.

Row | SMILES | Ki (DDR2) | Ki (DDR1)
9 | COc1ccc(OC(F)(F)F)cc1NC(=O)N(C)C1CC2(C1)CN(C(=O)c1cnn3ccc(N4CCN(C)CC4)cc13)C2 [Example 81, 3-(2-methoxy-5-(trifluoromethoxy)phenyl)-1-methyl-1-(2-(5-(4-methylpiperazin-1-yl)pyrazolo[1,5-a]pyridine-3-carbonyl)-2-azaspiro[3.3]heptan-6-yl)urea] | 5 to 25 nM | < 5 nM
10 | Cc1ccc(-n2nc(C(C)(C)C)cc2NC(=O)NC2CC3(C2)CN(C(=O)c2ncnc4ccsc24)C3)cc1 [Example 82, 1-(3-(tert-butyl)-1-(p-tolyl)-1H-pyrazol-5-yl)-3-(2-(thieno[3,2-d]pyrimidine-4-carbonyl)-2-azaspiro[3.3]heptan-6-yl)urea] | 5 to 25 nM | < 5 nM
11 | COc1ncc(Cl)cc1NC(=O)NC1CC2(C1)CN(C(=O)c1cnn3ccn(C)c13)C2 [Example 83, 1-(5-chloro-2-methoxypyridin-3-yl)-3-(2-(1-methyl-1H-imidazo[1,2-b]pyrazole-7-carbonyl)-2-azaspiro[3.3]heptan-6-yl)urea] | 5 to 25 nM | < 5 nM
12 | CN1CCN(c2ccn3ncc(C(=O)N4CC5(CC(NC(=O)Nc6cccc(C(F)(F)F)c6)C5)C4)c3c2)CC1 [Example 84, 1-(2-(5-(4-methylpiperazin-1-yl)pyrazolo[1,5-a]pyridine-3-carbonyl)-2-azaspiro[3.3]heptan-6-yl)-3-(3-(trifluoromethyl)phenyl)urea] | 5 to 25 nM | < 5 nM
13 | CCN(C(=O)Nc1cccc(C(F)(F)F)c1)C1CC2(C1)CN(C(=O)c1cnn3ccn(C)c13)C2 [Example 85, 1-ethyl-1-(2-(1-methyl-1H-imidazo[1,2-b]pyrazole-7-carbonyl)-2-azaspiro[3.3]heptan-6-yl)-3-(3-(trifluoromethyl)phenyl)urea] | 5 to 25 nM | < 5 nM
14 | CCN(C(=O)Nc1cc(F)cc(C(F)(F)F)c1)C1CC2(C1)CN(C(=O)c1cnn3ccn(C)c13)C2 [Example 86, 1-ethyl-3-(3-fluoro-5-(trifluoromethyl)phenyl)-1-(2-(1-methyl-1H-imidazo[1,2-b]pyrazole-7-carbonyl)-2-azaspiro[3.3]heptan-6-yl)urea] | 5 to 25 nM | < 5 nM
15 | CN1CCN(c2ccn3ncc(C(=O)N4CC5(CC(NC(=O)Nc6cc(C#N)cc(C(F)(F)F)c6)C5)C4)c3c2)CC1 [Example 87, 1-(3-cyano-5-(trifluoromethyl)phenyl)-3-(2-(5-(4-methylpiperazin-1-yl)pyrazolo[1,5-a]pyridine-3-carbonyl)-2-azaspiro[3.3]heptan-6-yl)urea] | 5 to 25 nM | < 5 nM
16 | O=C(Nc1cccc(C(F)(F)F)c1)NC1CC2(C1)CN(C(=O)c1ncnc3sccc13)C2 [Example 88, 1-(2-(thieno[2,3-d]pyrimidine-4-carbonyl)-2-azaspiro[3.3]heptan-6-yl)-3-(3-(trifluoromethyl)phenyl)urea] | 5 to 25 nM | < 5 nM
17 | O=C(Nc1cccc(OC(F)F)c1)NC1CC2(C1)CN(C(=O)c1ncnc3ccsc13)C2 [Example 89, 1-(3-(difluoromethoxy)phenyl)-3-(2-(thieno[3,2-d]pyrimidine-4-carbonyl)-2-azaspiro[3.3]heptan-6-yl)urea] | < 5 nM | < 5 nM
18 | O=C(Nc1cc(C(F)(F)F)ccn1)NC1CC2(C1)CN(C(=O)c1ncnc3ccsc13)C2 [Example 90, 1-(2-(thieno[3,2-d]pyrimidine-4-carbonyl)-2-azaspiro[3.3]heptan-6-yl)-3-(4-(trifluoromethyl)pyridin-2-yl)urea] | < 5 nM | < 5 nM
19 | COc1ccc(OC(F)F)cc1NC(=O)NC1CC2(C1)CN(C(=O)c1cnn3ccn(C)c13)C2 [Example 91, 1-(5-(difluoromethoxy)-2-methoxyphenyl)-3-(2-(1-methyl-1H-imidazo[1,2-b]pyrazole-7-carbonyl)-2-azaspiro[3.3]heptan-6-yl)urea] | 5 to 25 nM | < 5 nM
20 | Cn1ccn2ncc(C(=O)N3CC4(CC(NC(=O)Nc5cc(OC(F)(F)F)ccc5Cl)C4)C3)c12 [Example 92, 1-(2-chloro-5-(trifluoromethoxy)phenyl)-3-(2-(1-methyl-1H-imidazo[1,2-b]pyrazole-7-carbonyl)-2-azaspiro[3.3]heptan-6-yl)urea] | < 5 nM | < 5 nM
21 | O=C(Nc1cccc(C(F)(F)F)c1)NC1CC2(C1)CN(C(=O)c1ccnc3[nH]ncc13)C2 [Example 93, 1-(2-(1H-pyrazolo[3,4-b]pyridine-4-carbonyl)-2-azaspiro[3.3]heptan-6-yl)-3-(3-(trifluoromethyl)phenyl)urea] | < 5 nM | < 5 nM
22 | CN(C(=O)Nc1cc(CO)cc(C(F)(F)F)c1)C1CC2(C1)CN(C(=O)c1cnn3ccsc13)C2 [Example 94, 3-(3-(hydroxymethyl)-5-(trifluoromethyl)phenyl)-1-methyl-1-(2-(pyrazolo[5,1-b]thiazole-7-carbonyl)-2-azaspiro[3.3]heptan-6-yl)urea] | 5 to 25 nM | < 5 nM
23 | O=C(Nc1cccc(C(F)(F)F)c1)NC1CC2(C1)CN(C(=O)c1cnc3sccn13)C2 [Example 96, 1-(2-(imidazo[2,1-b]thiazole-5-carbonyl)-2-azaspiro[3.3]heptan-6-yl)-3-(3-(trifluoromethyl)phenyl)urea] | < 5 nM | < 5 nM
24 | O=C(Nc1cc(OC(F)(F)F)ccn1)NC1CC2(C1)CN(C(=O)c1cnn3ccsc13)C2 [Example 97, 1-(2-(pyrazolo[5,1-b]thiazole-7-carbonyl)-2-azaspiro[3.3]heptan-6-yl)-3-(4-(trifluoromethoxy)pyridin-2-yl)urea] | < 5 nM | < 5 nM

Reference: patent publication US20260285855A1, “HETEROARYL DERIVATIVES AS DDRS INHIBITORS” (CHIESI FARMACEUTICI S.P.A., priority 2023, published 2026)
